From the NIST ThermoML archive (doi:10.1016/j.fluid.2009.06.015)

Assay: excess molar enthalpy (molar enthalpy of mixing); xn = mol fraction of the nth substance listed
Settings: 101 kPa, Liquid, Flow calorimetry

c1ccccc1 [benzene] + CCCCO
excess molar enthalpy [kcal/mol]
Settings | 298.15 K | 313.15 K
x1 = 0.0494 | – | 0.0354
x1 = 0.0504 | 0.0282 | –
x1 = 0.0997 | 0.0566 | –
x1 = 0.1007 | – | 0.0726
x1 = 0.1497 | 0.0851 | 0.108
x1 = 0.1997 | 0.113 | –
x1 = 0.2007 | – | 0.143
x1 = 0.2495 | – | 0.175
x1 = 0.2505 | 0.141 | –
x1 = 0.3001 | 0.167 | –
x1 = 0.3002 | – | 0.206
x1 = 0.3506 | 0.191 | –
x1 = 0.3507 | – | 0.234
x1 = 0.3999 | 0.212 | –
x1 = 0.401 | – | 0.26
x1 = 0.4493 | – | 0.28
x1 = 0.4502 | 0.23 | –
x1 = 0.4993 | – | 0.297
x1 = 0.5002 | 0.246 | –
x1 = 0.5492 | – | 0.31
x1 = 0.5501 | 0.257 | –
x1 = 0.5998 | 0.265 | –
x1 = 0.601 | – | 0.317
x1 = 0.6505 | 0.267 | –
x1 = 0.6506 | – | 0.32
x1 = 0.7 | 0.264 | –
x1 = 0.7001 | – | 0.316
x1 = 0.7495 | – | 0.306
x1 = 0.7503 | 0.256 | –
x1 = 0.7996 | 0.242 | –
x1 = 0.8007 | – | 0.287
x1 = 0.8497 | 0.22 | –
x1 = 0.8498 | – | 0.259
x1 = 0.8996 | 0.185 | –
x1 = 0.9007 | – | 0.215
x1 = 0.9495 | – | 0.145
x1 = 0.9504 | 0.129 | –
